# Laboratory results taken from patent US20190351029A1, “MODULATION OF ISCHEMIC CELL BIOENERGETICS” (East Carolina University, priority 2017, published 2019).
# Where a name gives a salt, the structure may show the parent alone.
# Assays:
# [1] = test system: hypoxic cell growth; assay: High-throughput hypoxic cell growth assays; assay type: cell-based
# Text: In some embodiments, the presently disclosed subject matter relates to the discovery that genetically or pharmacologically enhancing glycolytic metabolism is protective against hypoxia/ischemia. Particularly, in accordance with some embodiments of the presently disclosed subject matter, it has been uncovered that elevated expression of the enzyme 6-phosphofructo-2-kinase/fructose-2,6-bisphosphatase 3 (PFKFB3), a potent allosteric activator of glycolysis, prevents ischemic injury and improves cell survival, while small molecular inhibition of PFKFB3 severely exacerbates ischemic injury. Thus, in some embodiments, the genetic target is PFKFB3. […] The compounds include, for example, metform in, phenformin, biperiden hydrochloride, clemastine, meclizine, berberine chloride, vinpocetine, pimozide, and mefloquine.
# Many Food and Drug Administration (FDA) approved drugs and other chemical compounds have off-target effects on cellular metabolism, including the ability to enhance glycolytic metabolism. Cardiomyoblast (H9c2; obtained from ATCC) cells were treated with a number of compounds (berberine, clofoctol, phenformin, metformin, pentamidine, clemastine, pimoxide, bisacodyl, meclizine, mefloquine, papaverine, flunarizine, biperiden, vinpocetine, and niclosamide) at a final concentration of 1 μM prior to experimental hypoxia for 72 hours. […] Human kidney fibroblast cells were also treated with the compound prior to experimental hypoxia. […] In addition, primary mouse cortical neurons were treated with the compounds prior to experimental ischemia.
# [2] = test system: endothelial (HUVEC) cells; assay: AAV-mediated expression of PFKFB3 in endothelial cells; assay type: cell-based, human; details: HUVEC on Matrigel; PFKFB3 inhibited
# Text: To begin examining the therapeutic potential of PFKFB3 in PAD, an AAV vector was generated to deliver PFKFB3 cloning the PFKFB3 coding sequence into an AAV2 ITR vector with expression driven by the ubiquitous cytomegalovirus promoter (CMV) promoter. AAV-PFKFB3 or control virus (AAV-DJ-GFP) was delivered to muscle (primary mouse myoblast) and endothelial (HUVEC) cells at a multiplicity of infection (MOI) of 10,000.
Compound,cell growth/survival in hypoxia [1],effect on enhanced tube formation of AAV-DJ-PFKFB3 treated endothelial cells [2]
OC(CCN1CCCCC1)(c1ccccc1)C1CC2C=CC1C2 (stereo not drawn) [biperiden hydrochloride],improve cell growth/survival in hypoxia,
[H]/N=C(/N)N/C(=N/[H])NCCc1ccccc1 [phenformin],improve cell growth/survival in hypoxia,
COc1ccc2cc3[n+](cc2c1OC)CCc1cc2c(cc1-3)OCO2 [berberine chloride],improve cell growth/survival in hypoxia,
CN1CCC[C@@H]1CCO[C@](C)(c1ccccc1)c1ccc(Cl)cc1 [clemastine],improve cell growth/survival in hypoxia,
"CN(C)C(=N)N=C(N)N [metform in, metformin]",improve cell growth/survival in hypoxia,
Cc1cccc(CN2CCN(C(c3ccccc3)c3ccc(Cl)cc3)CC2)c1 (stereo not drawn) [meclizine],improve cell growth/survival in hypoxia,
OC(c1cc(C(F)(F)F)nc2c(C(F)(F)F)cccc12)C1CCCCN1 (stereo not drawn) [mefloquine],improve cell growth/survival in hypoxia,
"O=C(C=Cc1ccc2ccccc2n1)c1ccncc1 [PFK15, 1-(4-pyridinyl)-3-(2-quinolinyl)-2-propen-1-one]",,abolished
CCOC(=O)C1=C[C@]2(CC)CCCN3CCc4c(n1c1ccccc41)[C@@H]32 [vinpocetine],improve cell growth/survival in hypoxia,
